Assay: gradient 5% acetonitrile 3 min, to 50% in 2 min, to 85% in 15 min, held 3 min, 100 µL/min
Conditions: column: Zorbax Extend-C18 2.1 x 50 mm; eluents: water / acetonitrile, 0.1% formic acid
Method in brief: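 Values are retention times taken from adduct peaks that software picked and an analyst inspected. The pure standards were run as mixtures of ~100 molecules on HPLC linked to a quadrupole time-of-flight mass spectrometer, in positive and negative ionization mode. A Zorbax Extend-C18 column (2.1 × 50 mm, 1.8 μm) was used at 100 μL/min with water and acetonitrile, each including 0.1% formic acid.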

Compound | RP-LC retention time [s]
CCN1C(=O)c2c(C(=O)NCc3ccc(C)cc3)ncn2CC1(C)C(=O)NC1CCCC1 (stereo unspecified) | 783
O=c1n(Cc2ccc(F)cc2Cl)nc2ccc(S(=O)(=O)N3CCCCC3)cn12 | 990
O=C(C1=CN(c2ccc3c(c2)OCCO3)c2cc(Cl)ccc2S1(=O)=O)N1CCCC1 | 838
COC(=O)c1c(C)c(C(=O)C(C)N(Cc2ccc(F)cc2)C(=O)C2CC2)c(C)n1C (stereo unspecified) | 917
Cc1ccc(CNC(=O)C2CCc3sc(C(=O)N(C)C)cc3C2)cc1 (stereo unspecified) | 692
Cn1ncc2c3ccccc3n(CC(=O)NCCN3CCOCC3)c2c1=O | 592
COc1cc([C@@H]2c3cc4c(cc3[C@H](O)[C@@H](CO)[C@@H]2C(=O)N2CCOCC2)OCO4)cc(OC)c1OC | 632
COCCOC(=O)C1=C(C)NC2=C(C(=O)C(C(=O)OC)C(C)C2)C1c1cccc(Cl)c1 (stereo unspecified) | 899
Cn1cc(CCN2CCC(C(=O)NC3CCCCCC3)CC2)c2cccnc21 | 616
Cc1ccccc1CNC(=O)c1cc2n(n1)CC(C)(C(=O)NC1CCCC1)N(C)C2=O (stereo unspecified) | 767
COc1ccccc1NC(=O)C1CCN(S(=O)(=O)c2cn(C(C)C)cn2)CC1 | 757
CNC(=O)C1CCCN(c2nc3ncn(CC(=O)Nc4cc(C)cc(C)c4)c(=O)c3s2)C1 (stereo unspecified) | 694
Cc1c(S(=O)(=O)N2CCCC(C)C2)c(C)n(C)c1C(=O)N1CCc2ccccc21 (stereo unspecified) | 1070
O=C(C1=CN(c2ccc3c(c2)OCCO3)c2cc(F)ccc2S1(=O)=O)N1CCCC1 | 735
COCCCNC(=O)C1CCN(c2nccnc2Sc2cccc(C)c2)CC1 | 886
CCOc1ccc(S(=O)(=O)N2CCC(C(=O)NC3CCCC3)CC2)cc1 | 632
O=C(Cn1ncc2c(c1=O)N(CC1CC1)C(=O)CS2)Nc1ccccc1C(F)(F)F | 831
CC1CCCN(CC2CCN(S(=O)(=O)Cc3ccccc3F)CC2)C1 (stereo unspecified) | 650
CN1C(=O)c2cccn2CC1C(=O)NCC1CCCCC1 (stereo unspecified) | 727
Cc1ccc(S(=O)(=O)N2CCC(CCC(=O)NCc3cccc(C)c3)CC2)cc1 | 956
O=C(CN1CC=C(c2cnn(-c3ccccc3)c2)CC1)NC1CCCCCC1 | 702
COCc1nc(C2CCCN(C(=O)NC3CCCC3)C2)no1 (stereo unspecified) | 743
CCc1nc2nc3c(c(N4CCN(c5ccccn5)CC4)n2n1)CCC3 | 581
Cc1csc(-c2cc(S(=O)(=O)Nc3cc(Cl)ccc3C)c(C)s2)n1 | 1110
CCc1nccn1Cc1noc(-c2cccs2)n1 | 593
Oc1ccc2c3c1O[C@H]1c4[nH]c5ccccc5c4C[C@@]4(O)C(C2)N(CC2CC2)CCC314 (stereo partly specified) | 692
CCc1cccc(C)c1NC(=O)Cn1cnc2nc(N3CCC(C(=O)NC)CC3)sc2c1=O | 646
CCOC(=O)c1ccc(NS(=O)(=O)N2CCOCC2)cc1 | 724

Results, then the compound that gave them:

RP-LC retention time [s] | Compound
754 | CCn1cnc2ccc(-c3noc(COc4ccc(F)cc4)n3)cc21
814 | Cc1cc(C)cc(C(=O)NCc2[nH]nc3ccccc23)c1
554 | CC1CS(=O)(=O)N(c2ccc(C(=O)N3CCN(c4ccccn4)CC3)cc2)C1=O (stereo unspecified)
732 | CCOc1ccc(-c2ccc(=O)n(CCNC(=O)c3ccc(N(C)C)cc3)n2)cc1
681 | CC(=O)Nc1ccc(-n2cnc(C(=O)NCc3ccc(F)cc3)c2)nc1
849 | c1ccc(Nc2nc(-c3ccc4c(c3)OCO4)cs2)nc1
582 | Cc1ccc(NC(=O)N2CCc3[nH]cnc3C2c2ccncc2)cc1C (stereo unspecified)
797 | Cc1c(C(=O)N2CCOCC2)cnn1-c1cc(-c2nc(C3CC3)no2)ccn1
1130 | COc1ccccc1NC(=O)C(=O)c1cn(CC(=O)N2CCCC2)c2ccccc12
678 | O=C(Nc1c(C(=O)N2CCN(c3ccccn3)CC2)[nH]c2ccccc12)c1ccc(Cl)cc1
811 | COC(=O)c1ccccc1NC(=O)CCCn1cnc(-c2ccccc2)cc1=O
1030 | Cc1ccc(C(=O)Nc2cc(-c3ccsc3)no2)c(C)c1
889 | Cc1cccc(CNC(=O)CN2C(=O)CCc3cc(Br)ccc32)c1
754 | COc1ccc(OC)c(-c2ccc(=O)n(CCNC(=O)C(C)Oc3ccccc3F)n2)c1 (stereo unspecified)
637 | O=C(CSc1nccn1Cc1ccco1)Nc1ccccc1C(F)(F)F
1080 | Cc1ccc(CNC(=O)C2(C)CCCN(C(=O)Nc3ccc(C)cc3Cl)C2)cc1 (stereo unspecified)
686 | O=C(NCc1ccc(F)c(Cl)c1)C1CCN(c2nnc3ccccn23)CC1
673 | Cc1cccc(NC(=O)NCC(c2cccnc2)c2c[nH]c3ccccc23)c1 (stereo unspecified)
679 | O=C(/C=C/c1cccc(S(=O)(=O)Nc2ccccc2)c1)NO

RP-LC retention time [s] | Compound
607 | O=C(NC(Cc1ccccc1)c1nc2ccccc2[nH]1)c1cccs1 (stereo unspecified)
654 | Cc1ccc(F)c(-n2nnc(C(=O)O)c2-c2ccncc2)c1
1090 | c1ccc(-c2cc3ccccc3[nH]2)cc1
1200 | CCc1ccc(S(=O)(=O)c2cnc(N3CCN(c4ccccc4F)CC3)nc2N)cc1
848 | Cc1cccc(-c2nc(N3CCCCCC3)c3ccccc3n2)c1
614 | Cc1nc(NC(=O)CNC(=O)c2c[nH]c3ccccc23)sc1C(=O)N(C)C
1130 | Cc1cc(NS(=O)(=O)c2ccc(Nc3nc(-c4ccc(Cl)c(Cl)c4)cs3)cc2)no1
578 | CCCC(=O)N1CCc2c([nH]c3ccccc23)C1c1ccc(Cl)cc1 (stereo unspecified)
1120 | COc1ccc(-c2nnc(SCc3ccc(Br)cc3)o2)c(OC)c1
697 | Cc1cccc(Cn2c(C)c(CNCc3ccco3)c(C(=O)O)c2C)c1
784 | COc1ccc(C(=O)N2CCC3(CC2)N=C(c2ccc(Cl)cc2)NO3)cc1OC
782 | COc1ccc(CC(=O)N2CCC3(C2)C(=O)N(C)c2ccccc23)cc1 (stereo unspecified)
997 | COc1cccc(-c2noc(C3CCCN3C(=O)c3ccc(C)s3)n2)c1 (stereo unspecified)
987 | CC1=NS(=O)(=O)N(C)C=C1C(=O)OCc1noc(-c2ccccc2C)n1
944 | O=C(NCCc1csc(-c2ccc(F)cc2)n1)Oc1ccccc1
880 | O=C(Cn1ccn2nc(-c3ccc(F)cc3)c(CO)c2c1=O)Nc1ccc(Cl)cc1
1280 | O=C(COc1ccccc1)Nc1ccc(-c2nc(-c3ccc(Cl)cc3)no2)cc1
678 | O=C(CCc1c(-c2ccc(Br)cc2)nc2ccccn12)NCCc1ccco1
1250 | Cc1c(Cl)cccc1NC(=O)C1CCCN(c2nc3c(s2)c(C)nn3-c2ccccc2)C1 (stereo unspecified)
